Reference: patent publication US20250084094A1 (Vertex Pharmaceuticals Incorporated, priority 2021, published 2025)

Target: T1, APOL1 (Homo sapiens, UniProt O14791)
T1 sequence (O14791 1-398 S342G/I384M): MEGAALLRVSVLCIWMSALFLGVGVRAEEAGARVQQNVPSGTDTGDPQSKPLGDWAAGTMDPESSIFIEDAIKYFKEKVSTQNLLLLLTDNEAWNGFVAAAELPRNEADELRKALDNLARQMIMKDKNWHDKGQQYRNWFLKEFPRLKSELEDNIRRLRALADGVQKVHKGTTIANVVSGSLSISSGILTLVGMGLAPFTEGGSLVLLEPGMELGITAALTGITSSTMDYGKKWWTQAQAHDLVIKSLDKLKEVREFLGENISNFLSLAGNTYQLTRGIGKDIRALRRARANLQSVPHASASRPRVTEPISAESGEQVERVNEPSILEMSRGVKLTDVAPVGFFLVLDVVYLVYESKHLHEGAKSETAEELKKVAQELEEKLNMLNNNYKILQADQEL
Experiment: MultiTox-Fluor Multiplex Cytotoxicity Assay in tet-inducible APOL1 T-REx-HEK293 cells
Type: cell-based
Conditions: tet-inducible transgenic APOL1 T-REx-HEK293 cell lines, 50 ng/mL tet, 24 hours, ratio of dead to live cells; read-out: IP50 (nM) (i.e., IC50 for cell proliferation)
Method: The MultiTox-Fluor Multiplex Cytotoxicity Assay is a single-reagent-addition, homogeneous, fluorescence assay that measures the number of live and dead cells simultaneously in culture wells. The assay measures cell viability and cytotoxicity by detecting two distinct protease activities. The live-cell protease activity is restricted to intact viable cells and is measured using a fluorogenic, cell-permeant peptide glycyl-phenylalanylamino fluorocoumarin (GF-AFC) substrate. The substrate enters intact cells, where it is cleaved to generate a fluorescent signal proportional to the number of living cells. […] A second, cell-impermeant, fluorogenic peptide substrate (bis-AAF-R110 Substrate) is used to measure dead-cell protease that has been released from cells that have lost membrane integrity. A ratio of dead to live cells is used to normalize data.
Briefly, the tet-inducible transgenic APOL1 T-REx-HEK293 cell lines were incubated with 50 ng/mL tet to induce APOL1 in the presence of 3-(2-(4-fluorophenyl)-1H-indol-3-yl)-N-((3S,4R)-4-hydroxy-2-oxopyrrolidin-3-yl)propenamide at 10.03, 3.24, 1.13, 0.356, 0.129, 0.042, 0.129, 0.0045, 0.0015, 0.0005 μM in duplicate for 24 hours in a humidified 37° C. incubator. The MultiTox reagent was added to each well and placed back in the incubator for an additional 30 minutes. The plate was read on the EnVision plate reader. A ratio of dead to live cells was used to normalize, and data was imported, analyzed, and fit using Genedata Screener (Basel, Switzerland) software. Data was normalized using percent of control, no tet (100% viability), and 50 ng/mL tet treated (0% viability),and fit using Smart Fit. The reagents, methods, and complete protocol for the MultiTox assay are described below.
Human embryonic kidney (HEK293) cell lines containing a tet-inducible expression system (T-REx™; Invitrogen, Carlsbad, CA) and Adeno-associated virus site 1 pAAVS1-Puro-APOL1 G0 or pAAVS1-Puro-APOL1 G1 or pAAVS1-Puro-APOL1 G2 Clones G0 DC2.13, Gi DC3.25, and G2 DC4.44 were grown in a T-225 flask at ˜90% confluency in cell growth media (DMEM, 10% Tet-free FBS, 2 mM L-glutamine, 100 Units/mL penicillin-streptomycin, 5 μg/mL blasticidin S HCl, 1 μg/mL puromycin dihydrochloride). Cells were washed with DPBS and then trypsinized to dissociate from the flask. Media was used to quench the trypsin, cells were then pelleted at 200 g and resuspended in fresh cell assay media (DMEM, 2% Tet-free FBS, 2 mM L-glutamine, 100 Units/mL penicillin-streptomycin). Cells were counted and diluted to 1.17×10^6 cells/mL. 20 μL of cells (23,400/well) were dispensed in every well of a 384-well Poly-D-Lysine coated plate using the Multidrop dispenser. The plates were then incubated at room temperature for one hour.
Tetracycline is needed to induce APOL1 expression. 1 mg/mL tet stock in water was diluted to 250 ng/mL (5×) in cell assay media. 60 μL of cell assay media (no tet control) was dispensed in columns 1 and 24, and 60 μL of 5× tet in 384-PP-round bottom plate was dispensed in columns 2 to 23 with the Multidrop dispenser.
Assay ready plates from the Global Compound Archive were ordered using template 384_APOLICell_DR10n2_50 uM_v3. Compounds were dispensed at 200 nL in DMSO. The final top concentration was 10 μM with a 10 point 3-fold dilution in duplicate in the MultiTox assay.
20 μL was transferred from the 5× tet plate to the ARP and mixed, then 5 μL of 5× tet and the compounds were transferred to the cell plate and mixed using the Bravo. The cell plate was placed in the humidified 37° C. 5% CO2 incubator for 24 hours.
The MultiTox-Fluor Multiplex Cytotoxicity Assay was performed in accordance with the manufacturer's protocol. After cells were incubated with tet and compound for 24 hours, 25 μL of 1x MultiTox reagent was added to each well using the Multidrop dispenser; the plates were placed on a plate shaker (600 rpm) for 2 minutes, then centrifuged briefly and placed back in the 37° C. incubator for 30 minutes. […]

Row | Structure (SMILES) | IC50 [nM]
1 | C[C@H]1C[C@@]2(C[C@@H](c3cn(C)nn3)N1)C(=O)Nc1cc(Cl)ccc12 [Compound 36, (2′S,3S,6′S)-6-chloro-2′-methyl-6′-(1-methyltriazol-4-yl)spiro[indoline-3,4′-piperidine]-2-one] | < 50
2 | C[C@H]1C[C@@]2(C[C@@H](c3cn(C)nn3)N1)C(=O)Nc1ccc(C(F)(F)F)cc12 [Compound 37, (2′S,3S,6′S)-2′-methyl-6′-(1-methyltriazol-4-yl)-5-(trifluoromethyl)spiro[indoline-3,4′-piperidine]-2-one] | < 50
3 | C[C@H]1C[C@@]2(C[C@@H](c3cn(C)nn3)N1)C(=O)Nc1cc(C(F)(F)F)ccc12 [Compound 38, (2′S,3S,6′S)-2′-methyl-6′-(1-methyltriazol-4-yl)-6-(trifluoromethyl)spiro[indoline-3,4′-piperidine]-2-one] | < 50
4 | C[C@H]1CC2(C[C@@H](c3cn(C)nn3)N1)OC(C(N)=O)c1cc(Cl)ccc12 (stereo partly drawn) [Compound 39, (2′S,6′S)-6-chloro-2′-methyl-6′-(1-methyltriazol-4-yl)spiro[1H-isobenzofuran-3,4′-piperidine]-1-carboxamide] | < 50
5 | C[C@H]1CC2(C[C@@H](c3cn(C)nn3)N1)OC(C(N)=O)c1ccc(Cl)cc12 (stereo partly drawn) [Compound 41, (2′S,6′S)-5-chloro-2′-methyl-6′-(1-methyltriazol-4-yl)spiro[1H-isobenzofuran-3,4′-piperidine]-1-carboxamide] | < 50
